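Compound exposure: 48 hours, 5 concentrations, 96-well plates. TGI marks complete inhibition of growth.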
Columns and labels:
Experiment in all cases: inhibition of tumour cell growth, NCI panel, 48 h
[1] = test system: EKVX NSCLC
[2] = test system: RXF 393 renal
[3] = test system: U251 CNS
[4] = test system: UACC-62 melanoma
[5] = test system: RPMI-8226 leukemia
[6] = test system: IGROV1 ovarian
[7] = test system: 786-0 renal
[8] = test system: SK-MEL-5 melanoma
[9] = test system: A498 renal
[10] = test system: HCT-15 colon
[11] = test system: SF-295 CNS
[12] = test system: COLO 205 colon
[13] = test system: MDA-MB-435
[14] = test system: OVCAR-8 ovarian
[15] = test system: SK-MEL-2 melanoma
[16] = test system: MCF7 breast
[17] = test system: UO-31 renal
[18] = test system: HCT-116 colon
[19] = test system: A549 NSCLC
[20] = test system: CCRF-CEM leukemia
[21] = test system: LOX IMVI melanoma
[22] = test system: HOP-62 NSCLC
[23] = test system: PC-3 prostate
[24] = test system: KM12 colon
[25] = test system: HS 578T breast
[26] = test system: SF-268 CNS
[27] = test system: OVCAR-3 ovarian
[28] = test system: SN12C renal
[29] = test system: MDA-N
[30] = test system: NCI-H23 lung
[31] = test system: MALME-3M melanoma
[32] = test system: NCI-H460 lung
[33] = test system: TK-10 renal
[34] = test system: SR leukemia
[35] = test system: K-562 leukemia
[36] = test system: NCI/ADR-RES ovarian
[37] = test system: CAKI-1 renal
[38] = test system: SF-539 CNS
[39] = test system: UACC-257 melanoma
[40] = test system: OVCAR-4 ovarian
[41] = test system: SK-OV-3 ovarian
[42] = test system: SNB-19 CNS
[43] = test system: SW-620 colon
[44] = test system: MOLT-4 leukemia
[45] = test system: SNB-75 CNS
[46] = test system: HT29 colon
[47] = test system: HL-60(TB) leukemia
[48] = test system: NCI-H226 lung
[49] = test system: SK-MEL-28 melanoma
[50] = test system: ACHN renal
[51] = test system: HCC-2998 colon
[52] = test system: MDA-MB-231 breast
[53] = test system: NCI-H522 lung
[54] = test system: M14 melanoma
[55] = test system: DU-145 prostate
[56] = test system: T-47D breast
[57] = test system: BT-549 breast
[58] = test system: OVCAR-5 ovarian

Work on `C[N+]1(C)CC=C(N2CCOCC2)CC1` yielded a TGI [1] of over 10 µM, a TGI [2] of over 10 µM and a TGI [3] of over 10 µM. It also gave a TGI [4] of over 10 µM, a TGI [5] of over 10 µM and a TGI [6] of over 10 µM. For the same compound, the TGI [7] was over 10 µM, the TGI [8] was over 10 µM and the TGI [9] was over 10 µM. The TGI [10] was over 10 µM, the TGI [11] was over 10 µM and the TGI [12] was over 10 µM. For the same compound, the TGI [13] was over 10 µM, the TGI [14] was over 10 µM and the TGI [15] was over 10 µM. It also gave a TGI [16] of over 10 µM, a TGI [17] of over 10 µM and a TGI [18] of over 10 µM. It also gave a TGI [19] of over 10 µM, a TGI [20] of over 10 µM and a TGI [21] of over 10 µM. For the same compound, the TGI [22] was over 10 µM, the TGI [23] was over 10 µM and the TGI [24] was over 10 µM. For the same compound, the TGI [25] was over 10 µM, the TGI [26] was over 10 µM and the TGI [27] was over 10 µM. It also gave a TGI [28] of over 10 µM, a TGI [29] of over 10 µM and a TGI [30] of over 10 µM. The TGI [31] was over 10 µM, the TGI [32] was over 10 µM and the TGI [33] was over 10 µM. It also gave a TGI [34] of over 10 µM, a TGI [35] of over 10 µM and a TGI [36] of over 10 µM. The TGI [37] was over 10 µM, the TGI [38] was over 10 µM and the TGI [39] was over 10 µM. The TGI [40] was over 10 µM, the TGI [41] was over 10 µM and the TGI [42] was over 10 µM. The TGI [43] was over 10 µM, the TGI [44] was over 10 µM and the TGI [45] was over 10 µM. The TGI [46] was over 10 µM, the TGI [47] was over 10 µM and the TGI [48] was over 10 µM. The TGI [49] was over 10 µM, the TGI [50] was over 10 µM and the TGI [51] was over 10 µM. It also gave a TGI [52] of over 10 µM, a TGI [53] of over 10 µM and a TGI [54] of over 10 µM. The TGI [55] was over 10 µM and the TGI [56] was over 10 µM.

For `CC(C)C1CN1CC(O)Cn1ccnc1[N+](=O)[O-]` (stereo not drawn), the TGI [57] was over 100 µM, the TGI [58] was over 100 µM and the TGI [1] was over 100 µM. For the same compound, the TGI [3] was over 100 µM, the TGI [4] was over 100 µM and the TGI [6] was over 100 µM. The TGI [7] was over 100 µM, the TGI [8] was over 100 µM and the TGI [9] was over 100 µM. For the same compound, the TGI [10] was over 100 µM, the TGI [11] was over 100 µM and the TGI [12] was over 100 µM. The TGI [14] was over 100 µM, the TGI [15] was over 100 µM and the TGI [16] was over 100 µM. The TGI [17] was over 100 µM, the TGI [18] was over 100 µM and the TGI [19] was over 100 µM. For the same compound, the TGI [20] was over 100 µM, the TGI [22] was over 100 µM and the TGI [23] was over 100 µM. The TGI [24] was over 100 µM, the TGI [25] was over 100 µM and the TGI [26] was over 100 µM. For the same compound, the TGI [27] was over 100 µM, the TGI [28] was over 100 µM and the TGI [29] was over 100 µM. It also gave a TGI [30] of over 100 µM, a TGI [31] of over 100 µM and a TGI [32] of over 100 µM. The TGI [33] was over 100 µM, the TGI [35] was over 100 µM and the TGI [36] was over 100 µM. It also gave a TGI [37] of over 100 µM, a TGI [38] of over 100 µM and a TGI [39] of over 100 µM. It also gave a TGI [40] of over 100 µM, a TGI [41] of over 100 µM and a TGI [42] of over 100 µM. For the same compound, the TGI [43] was over 100 µM, the TGI [44] was over 100 µM and the TGI [45] was over 100 µM. The TGI [46] was over 100 µM, the TGI [48] was over 100 µM and the TGI [49] was over 100 µM. For the same compound, the TGI [50] was over 100 µM, the TGI [51] was over 100 µM and the TGI [52] was over 100 µM. It also gave a TGI [53] of over 100 µM, a TGI [54] of over 100 µM and a TGI [55] of over 100 µM. It also gave a TGI [56] of over 100 µM.

From PubChem BioAssay (NCI)
